# Data published in patent US6894068B2, “Substituted benzimidazoles as non-nucleoside inhibitors of reverse transcriptase” (The United States of America as represented by the …, priority 1997, dated 2005).
# Read-outs that look alike come from different tables or passages of the source.
# Assays:
# HIV-1 WT virus (NL4-3) = experiment: microbe, parasite or virus in culture; format: cell-based; conditions: Human immunodeficiency virus 1, NL43, CEM-SS
# In short: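 CEM-SS cells (5×10^3/well) infected with HIV-1 NL4-3 at MOI giving complete killing by day 6 (e.g., 0.01-0.05), with half-log compound dilutions in triplicate. After six days at 37° C., viability measured by XTT reduction at 450 nm; CIC50 is 50% inhibitory concentration of cytopathic killing.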
# HIV-1 isolate M184I = experiment: Cytopathic cell killing assay, isolate M184I; format: cell-based; conditions: Human immunodeficiency virus 1, read-out: EC50, isolate M184I
# Source text: (§1) The various HIV isolates tested in the Figures are those corresponding to wild-type virus (NL4-3) and the other strains listed by their RT mutations. The three 4×AZT isolates included in the Figures represent AZT drug-resistant variants. For example, the 4×AZT/L100I isolate has five mutations: four mutations confer increased resistance to AZT, and the other mutation is located within the NNRTI binding pocket. TZB and nevir. (nevirapine) are two well-known NNRTIs, included in this experiment for comparison purposes.
# In this Example, the antiviral and cellular toxicity of NNRTIs was investigated, using the cytopathic cell killing assay described by Yang (Yang et al., “Characteristics of a Group of Non-nucleoside Reverse Transcriptase Inhibitors with Structural Diversity and Potent Anti-Human Immunodeficiency Virus Activity,” Leukemia 9:S75-S85 [1995]). Briefly, in this method cells (e.g., the CEM-SS cell line, available from the NIAID AIDS Research and Reference Program [ARRRP]) were seeded at a density of 5×10^3 cells/well, into the wells of a 96-well microtiter plate. The cells were then infected with HIV virus (either mutant or WT), at a multiplicity of infection (MOI) previously determined to provide complete cell killing by 6 days of culture post-infection (e.g., MOI of 0.01-0.05). Each of the HIV isolates was pre-titered to induce equivalent levels of infection based on cell killing or virus production, prior to their use in these assays. A range of test compound concentrations was added to the wells in triplicate (e.g., serial half-log dilutions) to evaluate inhibition of HIV infection. […]
# After six days of incubation at 37° C., cell viability was determined spectrophotometrically at 450 nm for each well, using the metabolic reduction of XTT to a soluble colored formazan. (See, Gartner and Popovic, “Virus Isolation and Production, in Aldovini and Walker (eds.), Techniques in HIV Research, Stockton Press, NY, pp. […] [1991]; and Nara and Fischinger, “Quantitative Infectivity Assay for HIV-1 and HIV-2, ” Nature 332:469-470 [1988]). […]
# HIV-1 WT RT = HIV-1 WT RT (Human immunodeficiency virus type 1 group M subtype B, UniProt P03366); experiment: biochemical; format: biochemical
# HIV-1 isolate Y188H = experiment: Cytopathic cell killing assay, isolate Y188H; format: cell-based; conditions: Human immunodeficiency virus 1, read-out: EC50, isolate Y188H
# Source text: as §1
# (§2) In this Example, the antiviral and cellular toxicity of NNRTIs was investigated, using the cytopathic cell killing assay described by Yang (Yang et al., “Characteristics of a Group of Non-nucleoside Reverse Transcriptase Inhibitors with Structural Diversity and Potent Anti-Human Immunodeficiency Virus Activity,” Leukemia 9:S75-S85 [1995]). Briefly, in this method cells (e.g., the CEM-SS cell line, available from the NIAID AIDS Research and Reference Program [ARRRP]) were seeded at a density of 5×10^3 cells/well, into the wells of a 96-well microtiter plate. The cells were then infected with HIV virus (either mutant or WT), at a multiplicity of infection (MOI) previously determined to provide complete cell killing by 6 days of culture post-infection (e.g., MOI of 0.01-0.05). Each of the HIV isolates was pre-titered to induce equivalent levels of infection based on cell killing or virus production, prior to their use in these assays. A range of test compound concentrations was added to the wells in triplicate (e.g., serial half-log dilutions) to evaluate inhibition of HIV infection. Controls for each assay included drug controls (drug colorimetric control wells), drug cytotoxicity control wells (cells with drug), virus control wells (cells with virus), and cell viability controls (cells only). Positive control drugs (e.g. AZT and ddC) were also run in parallel.
# (§3) After six days of incubation at 37° C., cell viability was determined spectrophotometrically at 450 nm for each well, using the metabolic reduction of XTT to a soluble colored formazan. (See, Gartner and Popovic, “Virus Isolation and Production, in Aldovini and Walker (eds.), Techniques in HIV Research, Stockton Press, NY, pp. […] [1991]; and Nara and Fischinger, “Quantitative Infectivity Assay for HIV-1 and HIV-2, ” Nature 332:469-470 [1988]).
# (§4) The in vitro therapeutic index (TI50) was defined as the fold-difference between the EC50 and IC50. The results for the various compounds are included in FIGS. 8 and 19.
# HIV-1 isolate V179D = experiment: Cytopathic cell killing assay, MT-4 cells, isolate V179D; format: cell-based
# Source text: as §1, §2, §3, §4
# [1] = system: WT and HIV-1 variants containing amino acid substitutions in RT; format: cell-based; conditions: cytopathic cell killing assay, NNRTI-resistant HIV isolates
# Source text: In these Tables, antiviral data are reported as the quantity of drug in μM required to reduce cell killing or virus production by 50% (EC50). The various HIV isolates tested in the Figures are those corresponding to wild-type virus (NL4-3) and the other strains listed by their RT mutations. The three 4×AZT isolates included in the Figures represent AZT drug-resistant variants.
# Briefly, in this method cells (e.g., the CEM-SS cell line, available from the NIAID AIDS Research and Reference Program [ARRRP]) were seeded at a density of 5×10^3 cells/well, into the wells of a 96-well microtiter plate. The cells were then infected with HIV virus (either mutant or WT), at a multiplicity of infection (MOI) previously determined to provide complete cell killing by 6 days of culture post-infection (e.g., MOI of 0.01-0.05). Each of the HIV isolates was pre-titered to induce equivalent levels of infection based on cell killing or virus production, prior to their use in these assays. A range of test compound concentrations was added to the wells in triplicate (e.g., serial half-log dilutions) to evaluate inhibition of HIV infection. Controls for each assay included drug controls (drug colorimetric control wells), drug cytotoxicity control wells (cells with drug), virus control wells (cells with virus), and cell viability controls (cells only). Positive control drugs (e.g. AZT and ddC) were also run in parallel.
# as §3
# Antiviral and toxicity data were reported as the quantity of drug required to inhibit 50% of virus-induced cell killing or virus production (EC50), and the quantity of drug required to […] (IC50). The in vitro therapeutic index (TI50) was defined as the fold-difference between the EC50 and IC50.
smiles,measurement,setting,value
"Nc1cccc2c1nc(-c1c(F)cccc1F)n2Cc1c(F)cccc1F [Compound 3300, 4-amino-1-(2,6-difluorobenzyl)-2-(2,6-difluorophenyl)benzimidazole]",EC50,"HIV-1 WT virus (NL4-3); Table 7, drug concentration required to reduce cell killing or virus production by 50%, WT, read-out: EC50",460 nM
same,EC50,HIV-1 isolate M184I,650 nM
same,IC50,HIV-1 WT RT,280 nM
same,inhibition at 1 µM,"HIV-1 WT RT; Table 7, 1 μM drug, WT HIV-1 RT, read-out: % inhibn (1 μM)",69%
same,EC50,HIV-1 isolate Y188H,> 50000 nM
same,EC50,"HIV-1 isolate V179D; Human immunodeficiency virus 1, MT4, read-out: EC50, isolate V179D, Table 8, MT-4 cells",300 nM
same,"cross-resistance profile, result in words",[1],inhibit HIV-1 better than TZB
"CCc1cccc2c1nc(-c1c(F)cccc1F)n2Cc1c(F)cccc1F [Compound 4011, 1-(2,6-difluorobenzyl)-2-(2,6-difluorophenyl)-4-ethylbenzimidazole]",EC50,HIV-1 WT virus (NL4-3),820 nM
same,EC50,HIV-1 isolate M184I,960 nM
same,EC50,HIV-1 isolate Y188H,13200 nM
same,EC50,"HIV-1 isolate V179D; Human immunodeficiency virus 1, MT4, read-out: EC50, isolate V179D",1800 nM
same,"cross-resistance profile, result in words",[1],inhibit HIV-1 better than TZB
